Assay results taken from ChEMBL document CHEMBL1201862, “PubChem BioAssay data set” (2004).
The source made the active and inactive calls.

Columns and labels:
Mu-type opioid receptor = Mu-type opioid receptor (Homo sapiens, UniProt P35372); type: functional, cell-based;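 further: U2OS cells with beta-arrestin recruitment to OPRM1 by beta-gal complementation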
[1] = biological target: 5-hydroxytryptamine receptor 2A (Mus musculus, UniProt P35363); type: functional, cell-based;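 further: CHO-K1 cells with tagged receptor and beta-arrestin; agonist potency measured as compound-induced activation of the receptor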
Chain of 5-hydroxytryptamine receptor 2A (P35363 whole entry): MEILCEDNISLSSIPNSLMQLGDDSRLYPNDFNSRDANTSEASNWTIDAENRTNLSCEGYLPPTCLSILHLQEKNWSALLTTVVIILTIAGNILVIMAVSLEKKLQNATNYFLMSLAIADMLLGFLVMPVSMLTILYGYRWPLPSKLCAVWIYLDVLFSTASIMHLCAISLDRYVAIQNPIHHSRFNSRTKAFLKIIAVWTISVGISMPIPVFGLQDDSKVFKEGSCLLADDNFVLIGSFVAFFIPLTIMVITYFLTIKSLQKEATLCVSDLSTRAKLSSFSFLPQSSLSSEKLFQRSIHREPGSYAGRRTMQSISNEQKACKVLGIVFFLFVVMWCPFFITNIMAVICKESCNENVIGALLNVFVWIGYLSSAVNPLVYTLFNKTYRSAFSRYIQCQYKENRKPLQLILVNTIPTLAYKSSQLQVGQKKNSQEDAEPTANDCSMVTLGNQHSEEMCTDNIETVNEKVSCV

Beta-galactosidase = Beta-galactosidase (Escherichia coli, UniProt Q8VNN2); assay: Dose response counterscreen for EBI2 assay utilizing the enzyme, b-galactosidase.; type: functional
Chain of Beta-galactosidase (Q8VNN2 whole entry): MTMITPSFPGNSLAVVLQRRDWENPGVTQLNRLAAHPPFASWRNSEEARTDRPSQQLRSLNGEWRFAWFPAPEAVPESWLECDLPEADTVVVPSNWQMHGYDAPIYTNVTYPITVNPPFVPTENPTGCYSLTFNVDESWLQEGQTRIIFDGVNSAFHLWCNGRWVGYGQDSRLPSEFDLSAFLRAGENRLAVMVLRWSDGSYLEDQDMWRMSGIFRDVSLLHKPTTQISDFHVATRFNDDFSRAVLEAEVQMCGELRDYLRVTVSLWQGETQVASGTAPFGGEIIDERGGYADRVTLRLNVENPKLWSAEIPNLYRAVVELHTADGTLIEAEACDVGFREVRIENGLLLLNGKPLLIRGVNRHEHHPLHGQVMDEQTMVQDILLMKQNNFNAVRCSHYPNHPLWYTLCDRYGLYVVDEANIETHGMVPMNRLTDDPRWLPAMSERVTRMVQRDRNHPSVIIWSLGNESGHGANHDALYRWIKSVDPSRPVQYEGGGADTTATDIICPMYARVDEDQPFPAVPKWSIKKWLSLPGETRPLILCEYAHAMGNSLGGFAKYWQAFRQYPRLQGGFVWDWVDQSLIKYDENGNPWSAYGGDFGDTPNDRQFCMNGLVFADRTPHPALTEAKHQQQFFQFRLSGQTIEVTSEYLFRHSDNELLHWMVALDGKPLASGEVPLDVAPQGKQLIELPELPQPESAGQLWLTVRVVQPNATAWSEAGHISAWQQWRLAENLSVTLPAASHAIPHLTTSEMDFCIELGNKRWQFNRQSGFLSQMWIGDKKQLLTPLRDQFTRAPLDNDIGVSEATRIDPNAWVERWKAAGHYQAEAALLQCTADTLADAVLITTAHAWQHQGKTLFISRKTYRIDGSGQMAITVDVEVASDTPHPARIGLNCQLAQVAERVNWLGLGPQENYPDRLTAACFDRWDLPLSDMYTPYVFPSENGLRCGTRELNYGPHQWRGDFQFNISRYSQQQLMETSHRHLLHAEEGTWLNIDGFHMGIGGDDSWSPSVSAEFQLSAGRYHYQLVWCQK

[2] = biological target: T1, Small ubiquitin-related modifier 1 (Homo sapiens, UniProt P63165); assay: SUMO1 protein interaction blockers, potency – biochemical, fluorescence polarization, uHTS hits, dose response (AID 624382); type: functional; conditions: read-out: IC50_Mean
T1 sequence (P63165 whole entry): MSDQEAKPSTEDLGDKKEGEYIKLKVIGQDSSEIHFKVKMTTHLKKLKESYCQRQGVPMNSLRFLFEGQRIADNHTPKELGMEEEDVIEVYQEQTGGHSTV

[3] = biological target: T2, Voltage-gated N-type calcium channel alpha-1B subunit/Amyloid beta A4 precursor protein-binding family A member 1 (Homo sapiens, UniProt Q00975+Q02410); type: protein assay
Beta-lactamase [4] = biological target: Beta-lactamase (Salmonella choleraesuis (strain SC-B67), UniProt Q5J463)
Chain of Beta-lactamase (Salmonella choleraesuis (strain SC-B67), UniProt Q5J463) (Q5J463 whole entry): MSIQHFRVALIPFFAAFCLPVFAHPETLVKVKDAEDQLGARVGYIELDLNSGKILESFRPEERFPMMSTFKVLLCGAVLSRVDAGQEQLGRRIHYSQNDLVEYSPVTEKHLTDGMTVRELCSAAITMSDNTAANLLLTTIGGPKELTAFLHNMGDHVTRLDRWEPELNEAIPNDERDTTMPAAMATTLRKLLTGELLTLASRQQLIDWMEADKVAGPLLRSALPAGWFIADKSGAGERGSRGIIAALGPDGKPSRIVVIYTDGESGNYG

[5] = biological target: T1, Small ubiquitin-related modifier 1; assay: SUMO1 protein-protein binding blockers, potency – biochemical, FRET, dose response (AID 624383); type: functional; conditions: read-out: IC50_Mean
[6] = biological target: T2, Voltage-gated N-type calcium channel alpha-1B subunit/Amyloid beta A4 precursor protein-binding family A member 1; type: protein assay; remark: listed apart in the source
[7] = biological target: T3, Rac GTPase-activating protein 1 (Homo sapiens, UniProt Q9H0H5); assay: blockers of MgcRacGAP-driven Rac1 GTP hydrolysis – biochemical, ADP Hunter fluorescence, primary and confirmatory, confirmation (AID 624330); type: functional
T3 sequence (Q9H0H5 whole entry): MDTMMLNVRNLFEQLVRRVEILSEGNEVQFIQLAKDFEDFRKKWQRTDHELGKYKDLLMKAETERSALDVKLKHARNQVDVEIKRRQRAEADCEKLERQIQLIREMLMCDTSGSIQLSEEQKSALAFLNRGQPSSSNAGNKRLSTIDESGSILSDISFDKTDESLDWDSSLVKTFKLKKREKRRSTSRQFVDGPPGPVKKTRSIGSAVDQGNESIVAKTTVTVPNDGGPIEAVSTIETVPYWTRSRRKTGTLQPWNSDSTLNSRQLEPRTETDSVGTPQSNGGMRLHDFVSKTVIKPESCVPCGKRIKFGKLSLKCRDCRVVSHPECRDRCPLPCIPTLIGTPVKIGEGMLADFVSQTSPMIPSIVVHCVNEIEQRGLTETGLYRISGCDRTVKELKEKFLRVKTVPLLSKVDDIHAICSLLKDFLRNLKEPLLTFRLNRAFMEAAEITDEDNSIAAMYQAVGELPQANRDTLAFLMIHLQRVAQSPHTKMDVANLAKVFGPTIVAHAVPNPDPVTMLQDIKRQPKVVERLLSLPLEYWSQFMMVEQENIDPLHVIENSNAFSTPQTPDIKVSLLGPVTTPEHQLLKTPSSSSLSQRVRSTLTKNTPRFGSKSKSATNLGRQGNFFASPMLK

Beta Lactamase = Beta Lactamase (Pseudomonas aeruginosa, UniProt Q932Y6);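 further: confirmatory high-throughput screen measuring VIM-2 metallo-beta-lactamase inhibition by epi-absorbance in dose response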
Chain of Beta Lactamase (Q932Y6 whole entry): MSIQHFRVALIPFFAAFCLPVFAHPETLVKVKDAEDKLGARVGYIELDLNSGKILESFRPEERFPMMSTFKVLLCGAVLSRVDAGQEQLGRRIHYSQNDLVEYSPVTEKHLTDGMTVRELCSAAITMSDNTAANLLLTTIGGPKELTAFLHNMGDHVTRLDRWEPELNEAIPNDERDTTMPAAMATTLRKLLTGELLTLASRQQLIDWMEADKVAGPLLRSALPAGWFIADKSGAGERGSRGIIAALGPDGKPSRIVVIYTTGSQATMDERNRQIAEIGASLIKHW

Beta-lactamase [8] = biological target: Beta-lactamase (Pseudomonas aeruginosa, UniProt Q79MP6);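 further: biochemical dose-response test of metallo-beta-lactamase enzyme inhibition, read out by epi-absorbance; purified recombinant IMP-1 metallo-beta-lactamase with nitrocefin as substrate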
Chain of Beta-lactamase (Pseudomonas aeruginosa, UniProt Q79MP6) (Q79MP6 whole entry): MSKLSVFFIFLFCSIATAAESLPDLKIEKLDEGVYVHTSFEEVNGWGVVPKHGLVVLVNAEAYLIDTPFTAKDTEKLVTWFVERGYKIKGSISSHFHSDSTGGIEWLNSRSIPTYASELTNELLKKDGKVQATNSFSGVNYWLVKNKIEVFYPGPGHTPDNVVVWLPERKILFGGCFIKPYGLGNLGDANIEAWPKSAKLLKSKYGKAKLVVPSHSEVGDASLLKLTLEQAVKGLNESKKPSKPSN

[9] = HGIII-sPLA2 enzyme inhibition potency – biochemical, QFRET, IC50, dose response (AID 743457);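 further: green fluorescence rise as the enzyme cleaves BODIPY PC-A2 in liposomes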
[10] = biological target: T4, Low molecular weight phosphotyrosine protein phosphatase (Homo sapiens, UniProt P24666); type: functional; conditions: read-out: IC50_Mean
T4 sequence (P24666 whole entry): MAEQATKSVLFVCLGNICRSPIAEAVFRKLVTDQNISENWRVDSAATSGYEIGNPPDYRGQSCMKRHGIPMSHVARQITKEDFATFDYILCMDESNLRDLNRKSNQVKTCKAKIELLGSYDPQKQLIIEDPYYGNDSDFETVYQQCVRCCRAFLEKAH

Prothrombin = Prothrombin (Bos taurus, UniProt P00735); assay: thrombin protease inhibitors – biochemical, fluorescence polarization, uHTS hits, dose response (AID 602369); type: functional
[11] = biological target: 72 kDa type IV collagenase (Homo sapiens, UniProt P08253); assay: Dose Response validation of uHTS RPN11 inhibitor hits using a MMP-2 Fluorescence assay.; type: functional
Chain of 72 kDa type IV collagenase (P08253 whole entry): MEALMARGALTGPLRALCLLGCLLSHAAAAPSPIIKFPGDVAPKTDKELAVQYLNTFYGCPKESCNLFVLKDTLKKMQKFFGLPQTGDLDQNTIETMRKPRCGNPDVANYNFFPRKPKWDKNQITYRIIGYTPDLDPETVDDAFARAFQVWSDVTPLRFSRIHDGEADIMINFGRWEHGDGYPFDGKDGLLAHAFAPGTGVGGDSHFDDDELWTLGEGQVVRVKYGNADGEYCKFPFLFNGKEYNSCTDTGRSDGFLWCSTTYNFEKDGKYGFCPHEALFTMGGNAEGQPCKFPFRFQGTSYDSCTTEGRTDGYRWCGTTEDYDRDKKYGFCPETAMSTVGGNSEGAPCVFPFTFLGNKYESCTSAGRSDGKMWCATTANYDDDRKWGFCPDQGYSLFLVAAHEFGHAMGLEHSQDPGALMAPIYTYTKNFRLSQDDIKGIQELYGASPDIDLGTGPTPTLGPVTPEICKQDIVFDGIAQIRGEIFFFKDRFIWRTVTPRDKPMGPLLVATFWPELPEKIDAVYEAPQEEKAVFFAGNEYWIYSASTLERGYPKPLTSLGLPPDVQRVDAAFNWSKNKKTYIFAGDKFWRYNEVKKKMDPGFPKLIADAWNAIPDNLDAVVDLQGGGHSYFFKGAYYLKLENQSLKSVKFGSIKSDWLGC

[12] = biological target: T4, Low molecular weight phosphotyrosine protein phosphatase; type: functional; conditions: read-out: IC50_Mean; remark: listed apart in the source
[13] = biological target: 26S proteasome non-ATPase regulatory subunit 14 (Homo sapiens, UniProt O00487); assay: inhibition of proteasome subunit RPN11 – biochemical, fluorescence polarization, uHTS hits, confirmation (AID 602368); type: functional
Chain of 26S proteasome non-ATPase regulatory subunit 14 (O00487 whole entry): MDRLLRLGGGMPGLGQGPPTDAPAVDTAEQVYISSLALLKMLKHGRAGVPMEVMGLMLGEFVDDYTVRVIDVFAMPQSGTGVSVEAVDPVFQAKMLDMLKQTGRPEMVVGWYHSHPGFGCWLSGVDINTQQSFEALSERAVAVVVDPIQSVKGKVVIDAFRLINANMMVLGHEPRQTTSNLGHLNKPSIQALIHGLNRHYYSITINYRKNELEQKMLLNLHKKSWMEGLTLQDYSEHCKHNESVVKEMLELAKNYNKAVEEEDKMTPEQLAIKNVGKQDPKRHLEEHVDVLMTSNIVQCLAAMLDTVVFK

cells [14] = type: functional, cell-based
[15] = biological target: T5, Trace amine-associated receptor 1 (Homo sapiens, UniProt Q96RJ0); assay: Counterscreen for agonists of the human trace amine associated receptor 1 (hTAAR1): Fluorescence-based cell-based high throughput dose response assay to identify hTAAR1 agonist that also desensitize TAAR1 receptor response.; type: functional
T5 sequence (Q96RJ0 whole entry): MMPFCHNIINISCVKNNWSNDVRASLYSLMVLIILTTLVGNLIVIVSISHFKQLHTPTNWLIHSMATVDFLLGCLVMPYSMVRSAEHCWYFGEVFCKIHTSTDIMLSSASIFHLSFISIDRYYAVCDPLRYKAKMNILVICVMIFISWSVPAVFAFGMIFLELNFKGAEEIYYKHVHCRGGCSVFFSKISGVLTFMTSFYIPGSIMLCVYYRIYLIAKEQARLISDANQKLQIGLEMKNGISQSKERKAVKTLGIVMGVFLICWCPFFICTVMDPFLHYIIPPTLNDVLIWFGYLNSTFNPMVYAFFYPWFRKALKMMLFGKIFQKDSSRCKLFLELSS

[16] = biological target: T5, Trace amine-associated receptor 1; assay: Fluorescence-based cell-based high throughput dose response assay to identify agonists of the human trace amine associated receptor 1 (TAAR1).; type: functional
cells [17] = type: functional, cell-based; remark: listed apart in the source
[18] = biological target: Induced myeloid leukemia cell differentiation protein Mcl-1 (Homo sapiens, UniProt Q07820); type: functional
Chain of Induced myeloid leukemia cell differentiation protein Mcl-1 (Q07820 whole entry): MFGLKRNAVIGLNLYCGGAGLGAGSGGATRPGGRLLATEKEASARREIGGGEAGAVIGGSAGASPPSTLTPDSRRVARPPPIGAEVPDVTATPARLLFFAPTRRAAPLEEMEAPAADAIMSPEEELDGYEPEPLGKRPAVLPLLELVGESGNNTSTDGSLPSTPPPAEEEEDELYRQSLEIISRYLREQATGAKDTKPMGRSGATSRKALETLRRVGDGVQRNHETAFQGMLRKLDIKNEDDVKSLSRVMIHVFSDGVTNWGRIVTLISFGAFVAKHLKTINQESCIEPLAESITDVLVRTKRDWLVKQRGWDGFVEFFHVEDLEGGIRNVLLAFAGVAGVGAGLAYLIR

[19] = biological target: T6, Sentrin-specific protease 8 (Homo sapiens, UniProt Q96LD8); type: functional
T6 sequence (Q96LD8 whole entry): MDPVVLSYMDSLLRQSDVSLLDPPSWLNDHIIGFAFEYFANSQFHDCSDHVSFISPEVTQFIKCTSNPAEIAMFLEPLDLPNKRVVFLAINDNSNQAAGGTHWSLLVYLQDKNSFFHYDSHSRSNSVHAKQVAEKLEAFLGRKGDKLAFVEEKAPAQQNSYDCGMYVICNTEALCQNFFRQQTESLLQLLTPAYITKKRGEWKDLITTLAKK

[20] = biological target: T6, Sentrin-specific protease 8; type: functional; remark: listed apart in the source
cells [21] = type: functional, cell-based; conditions: HEK-CNG
Galanin receptor type 3 = Galanin receptor type 3 (Homo sapiens, UniProt O60755); assay: Fluorescence-based cell-based primary high throughput dose response assay to identify antagonists of the Galanin Receptor 3 (GalR3).; type: functional
Chain of Galanin receptor type 3 (O60755 whole entry): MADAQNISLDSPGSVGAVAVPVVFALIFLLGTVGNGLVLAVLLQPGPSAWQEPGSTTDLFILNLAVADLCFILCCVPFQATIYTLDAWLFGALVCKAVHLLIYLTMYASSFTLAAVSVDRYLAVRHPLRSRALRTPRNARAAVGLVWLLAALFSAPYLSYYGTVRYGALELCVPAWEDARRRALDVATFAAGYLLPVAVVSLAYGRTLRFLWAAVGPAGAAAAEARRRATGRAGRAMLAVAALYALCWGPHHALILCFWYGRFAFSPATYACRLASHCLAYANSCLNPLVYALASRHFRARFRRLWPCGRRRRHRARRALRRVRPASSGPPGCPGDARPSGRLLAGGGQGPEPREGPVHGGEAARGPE

[22] = biological target: ADP-ribosylation factor GTPase-activating protein 1 (Rattus norvegicus, UniProt Q62848); assay: Fluorescence polarization-based biochemical high throughput dose response screening assay to identify inhibitors of ADP-ribosylation factor GTPase activating protein 1 (ARFGAP1).; type: functional
Chain of ADP-ribosylation factor GTPase-activating protein 1 (Q62848 whole entry): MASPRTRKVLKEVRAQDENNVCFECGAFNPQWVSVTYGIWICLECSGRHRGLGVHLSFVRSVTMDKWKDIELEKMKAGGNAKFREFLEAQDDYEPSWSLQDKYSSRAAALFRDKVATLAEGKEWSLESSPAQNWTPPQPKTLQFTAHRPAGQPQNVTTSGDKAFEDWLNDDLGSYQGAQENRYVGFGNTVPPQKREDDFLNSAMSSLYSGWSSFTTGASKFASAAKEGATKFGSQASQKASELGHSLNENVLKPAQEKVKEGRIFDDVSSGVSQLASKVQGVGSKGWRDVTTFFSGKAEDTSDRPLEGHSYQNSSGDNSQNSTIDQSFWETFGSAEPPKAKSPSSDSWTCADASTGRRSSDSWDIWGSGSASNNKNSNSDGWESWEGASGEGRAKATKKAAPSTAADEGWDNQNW

cells [23] = type: functional, cell-based; remark: listed apart in the source
[24] = biological target: T7, Nuclear receptor subfamily 0 group B member 1 (Homo sapiens, UniProt P51843); type: functional, cell-based;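 further: HEK293T cells transfected with SF-1 and DAX-1 plus StAR promoter luciferase reporter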
T7 sequence (P51843 whole entry): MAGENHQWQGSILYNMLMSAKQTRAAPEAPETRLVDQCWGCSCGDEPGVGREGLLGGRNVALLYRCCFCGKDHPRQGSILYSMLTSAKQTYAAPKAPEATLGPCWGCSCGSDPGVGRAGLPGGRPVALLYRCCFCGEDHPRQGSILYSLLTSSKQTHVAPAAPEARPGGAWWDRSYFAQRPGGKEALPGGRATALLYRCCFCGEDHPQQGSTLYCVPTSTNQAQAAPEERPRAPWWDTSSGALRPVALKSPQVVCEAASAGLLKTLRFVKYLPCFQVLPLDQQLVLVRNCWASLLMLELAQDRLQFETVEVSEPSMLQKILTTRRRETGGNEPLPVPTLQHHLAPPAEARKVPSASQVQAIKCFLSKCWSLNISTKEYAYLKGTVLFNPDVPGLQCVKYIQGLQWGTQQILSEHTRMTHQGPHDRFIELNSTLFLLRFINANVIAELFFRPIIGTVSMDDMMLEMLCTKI

[25] = loss of viability in HepG2 cells – cell-based, CellTiter-Glo, cherry-picked, cytotoxicity control for Shn3 inhibitor project, dose response (AID 624134); type: functional
INS1 = assay: INS-1E survival protection against cytokine death – cell-based, luminescence, retest, dose response (AID 449756); type: functional; conditions: Rattus norvegicus;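 further: cell death triggered by IL-1 beta plus TNF-alpha plus IFN-gamma mixture; protective hits raise ATP signal compared with cytokine alone wells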
[26] = non-specific 3'UTR reporter inhibition in Clone20-Shn3RL – cell-based, Renilla luciferase, cherry-picked, counter-screen for Shn3 inhibitor project, dose response (AID 624133); type: functional
[27] = biological target: T8, COUP transcription factor 2 (Homo sapiens, UniProt P24468); assay: Luminescence-based cell-based high throughput dose response assay to identify inhibitors of COUP-TFII (NR2F2).; type: functional;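 further: HEK293 cells transiently cotransfected with COUP-TFII expression vector and reporter; luciferase reporter luminescence driven by COUP-TFII from the pX2-168 reporter plasmid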
T8 sequence (P24468 whole entry): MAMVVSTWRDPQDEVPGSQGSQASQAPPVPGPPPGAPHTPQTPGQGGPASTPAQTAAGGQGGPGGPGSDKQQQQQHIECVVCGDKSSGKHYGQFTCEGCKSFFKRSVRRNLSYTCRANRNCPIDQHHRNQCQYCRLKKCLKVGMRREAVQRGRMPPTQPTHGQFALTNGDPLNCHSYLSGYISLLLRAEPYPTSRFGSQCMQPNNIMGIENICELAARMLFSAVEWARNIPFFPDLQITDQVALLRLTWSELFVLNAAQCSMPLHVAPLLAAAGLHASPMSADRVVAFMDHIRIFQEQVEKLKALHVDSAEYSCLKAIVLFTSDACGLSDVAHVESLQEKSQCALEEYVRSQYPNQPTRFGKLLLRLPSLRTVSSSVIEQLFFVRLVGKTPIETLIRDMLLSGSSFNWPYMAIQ

[28] = reduction of Shn3 3'UTR-driven luciferase in osteoblasts – cell-based, Clone20 osteoblasts, firefly luciferase, cherry-picked, dose response (AID 624132); type: functional;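 further: firefly luciferase luminescence from reporter carrying the Shn3 3'UTR in osteoblasts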
[29] = toxicity toward HepG2 liver cells – cell-based, plate reader, cherry-pick, antagonist series, cytotoxicity control, dose response (AID 743416); type: functional
[30] = blockade of melanocortin 4 receptor signaling – cell-based, plate reader, cherry pick, counter-screen for LGR2 antagonist project, dose response (AID 743444); type: functional;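 further: transfected HEK 293 cells stimulated with alpha-MSH peptide; potency of inhibitors of the alpha-MSH evoked signal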
[31] = A549 cell cytotoxicity, dose response, cytotoxicity control, plate reader, cherry-pick, antagonist series (AID 743412); type: functional, cell-based
[32] = blockers of bursicon-stimulated LGR2 cAMP reporter – cell-based, HEK293, CRE-luciferase reporter, cherry pick, set 2, dose response (AID 743343); type: functional;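 further: transfected cells were stimulated with diluted bursicon conditioned medium after compound addition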
[33] = viability loss in HEK293 cells – cell-based, plate reader, cherry-picked samples, cytotoxicity control, dose response (AID 743446); type: functional

Chain of Mu-type opioid receptor (P35372 whole entry): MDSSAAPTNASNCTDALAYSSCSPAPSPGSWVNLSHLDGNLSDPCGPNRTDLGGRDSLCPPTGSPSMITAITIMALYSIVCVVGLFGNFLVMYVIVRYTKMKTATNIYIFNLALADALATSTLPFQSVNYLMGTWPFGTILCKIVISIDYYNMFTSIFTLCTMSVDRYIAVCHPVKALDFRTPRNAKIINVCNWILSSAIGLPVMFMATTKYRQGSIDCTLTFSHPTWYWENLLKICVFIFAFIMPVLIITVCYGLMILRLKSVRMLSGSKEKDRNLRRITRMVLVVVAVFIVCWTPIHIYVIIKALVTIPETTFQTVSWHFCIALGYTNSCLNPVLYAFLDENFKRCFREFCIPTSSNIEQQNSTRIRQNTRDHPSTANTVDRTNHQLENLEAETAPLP

Compound: C/C(=C\c1ccccc1)CN1CCN(c2ccccc2)CC1
- EC50 (Mu-type opioid receptor): 92.5 µM (inactive)
- EC50 [1]: 76.1 µM (inactive)

Compound: Cc1cc(C)c(S(=O)(=O)N2CCN(C(=O)C3COc4ccccc4O3)CC2)c(C)c1 (stereo not drawn)
- IC50 (Beta-galactosidase): > 80 µM (inactive)

Compound: CC(C)n1cc(/C=N/Nc2ccc(Cl)c(C(=O)O)c2)c2ccccc21
- IC50 [2]: > 66.6 µM (inactive)
- IC50 [3]: > 50 µM (inactive)
- IC50 (Beta-lactamase [4]): > 59.6 µM (inactive)
- IC50 [5]: 3.26 µM (active)
- IC50 [6]: 41.8 µM (active)
- IC50 [7]: 102 µM (active)
- IC50 (Beta Lactamase): > 59.6 µM (inactive)
- IC50 (Beta-lactamase [8]): > 59.6 µM (inactive)

Compound: Cc1ccccc1OCCCN1C(=O)C(=O)c2cccc(C)c21
- IC50 [9]: > 122 µM (inactive)

Compound: Cc1c(Cl)c(C(=O)NN=C(S)NCc2ccco2)nn1C
- IC50 [9]: > 122 µM (inactive)

Compound: COc1ccc(/C(C)=N/NC(=O)c2nnn(-c3nonc3N)c2-c2ccccc2)cc1
- IC50 [10]: 35.2 µM (inactive)
- IC50 (Beta-lactamase [4]): > 59.6 µM (inactive)
- IC50 (Prothrombin): > 100 µM (inactive)
- IC50 [11]: 8.15 µM (active)
- IC50 [12]: > 80 µM (inactive)
- IC50 [13]: 30.2 µM (active)
- IC50 (Beta Lactamase): > 59.6 µM (inactive)
- IC50 (Beta-lactamase [8]): > 59.6 µM (inactive)

Compound: O=C(NCCc1ccccc1Cl)[C@@H]1CCCN1C(=O)[C@@H](NS(=O)(=O)c1ccc(F)cc1F)c1ccccc1
- IC50 (cells [14]): > 29.9 µM (inactive)
- IC50 [15]: 5.69 µM (active)
- EC50 [16]: 12.4 µM (inactive)
- EC50 (cells [17]): > 29.9 µM (inactive)

Compound: O=C(NC1CC1)c1cc(-c2ccco2)nc2ccccc12
- IC50 [2]: > 66.6 µM (inactive)
- IC50 [18]: 1.71 µM (active)
- IC50 [5]: 8.06 µM (active)

Compound: Cc1cccc(N2C(=O)/C(=C\c3ccc(C(=O)O)cc3)c3ccccc3C2=O)c1
- IC50 [19]: > 100 µM (inactive)
- IC50 [20]: 6.45 µM (active)

Compound: Cc1ccc(-c2sc(C(=O)NN)c(C)c2C#N)cc1
- EC50 (cells [21]): > 29.9 µM (inactive)
- IC50 (Galanin receptor type 3): > 29.9 µM (inactive)

Compound: O=C(Cn1c2ccc(F)cc2c2nc3n(c(=O)c21)CCS3)Nc1ccccc1C(F)(F)F
- IC50 [22]: 50.1 µM (inactive)

Compound: O=C(CSc1ccc(Br)cc1)N1CCN(C(=O)c2ccco2)CC1
- IC50 (Beta-galactosidase): > 80 µM (inactive)

Compound: CCC1CCCCN1C(=O)CCS(=O)(=O)c1ccccc1 (stereo not drawn)
- IC50 (cells [23]): > 67.6 µM (inactive)
- IC50 [24]: > 67.6 µM (inactive)

Compound: O=C(CSc1nnc(Cn2nnc3ccccc32)o1)N(Cc1ccc(Cl)cc1)c1ccccc1
- EC50 (cells [21]): > 29.9 µM (inactive)
- AC50 [25]: 6.74 µM (active)
- AC50 (INS1): 4.83 µM (active)
- AC50 [26]: 11.9 µM (active)
- IC50 [27]: 4.19 µM (active)
- IC50 (Galanin receptor type 3): 1.11 µM (active)
- AC50 [28]: 2.29 µM (active)

Compound: Cc1ccc(-c2cnc3c(Cl)c(C)nn3c2)cc1
- AC50 [29]: 40.8 µM (active)
- AC50 [30]: 8.19 µM (active)
- AC50 [31]: 5.87 µM (active)
- AC50 [32]: 7.53 µM (active)
- AC50 [33]: 31.5 µM (active)
